In patent EP0791072B1, “PROCESS FOR DETERMINING THE ACTIVITY OF SPECIFIC PHOSPHOTYROSINE PHOSPHATASES AND SPECIFIC EFFECTORS THEREOF IN INTACT CELLS” (Max-Planck-Gesellschaft zur Förderung der Wissenschaften …, priority 1994, dated 1996):

Key:
Format in all cases: cell-based, Maus
[1] = tested on: PDGF-Rezeptor-gerichtete(n) PTPase(n)
PDGF-Rezeptor = experiment: Time course of PDGF receptor phosphotyrosine content in intact Swiss 3T3 cells, PTK inhibitor added after PDGF stimulation; settings: AG 1296 50 µM added after 5 min PDGF stimulation, over incubation time
From the text: (§1) Swiss 3T3 Fibroblasten (Maus) exprimieren PDGFα und PDGFβ-Rezeptoren auf der Zelloberfläche (Hosang et al. (1989)). Die Stimulation der Zellen mit PDGF führt zu einer raschen Autophosphorylierung dieser Rezeptoren an Tyrosinresten. […] Die autophosphorylierten Rezeptoren werden durch PDGF-Rezeptor-gerichtete PTPase(n) rasch dephosphoryliert (Bohmer et al. (1993)). Die Identität der zellulären PTPasen, die diese Reaktion katalysieren, ist nicht bekannt. Ein hochspezifischer Inhibitor für die PDGF-Rezeptor PTK (AG 1296) hemmt deren Aktivität bereits nach sehr kurzer Behandlung der Zellen (2 min) vollständig (Abb. 1). In isolierten Membranen von Swiss 3T3-Zellen beeinflußt der Inhibitor die in den Membranen enthaltenen PTPase(n) für den autophosphorylierten PDGF-Rezeptor in ihrer Aktivität nicht (Abb. 2). Wird der Inhibitor Zellen nach Aktivierung der PDGF-Rezeptor PTK zugesetzt, kann die Dephosphorylierung des PDGF-Rezeptors zeitabhängig verfolgt werden (Abb. 3).
Swiss 3T3-Zellen wurden in serumfreiem Medium mit PDGF (Abb. 3, Bahn 2-6) oder dem entsprechenden Lösungsmittel (Abb. 3, Bahn 1) behandelt. Nach 5-minütiger Stimulation wurde AG 1296 (50 µM, Abb. 3 B) oder entsprechendes Lösungsmittel (DMSO, Abb. 3 A) zugesetzt. […] Diese Abnahme wird durch die Aktivität der PDGF Rezeptor-gerichteten PTPase in den intakten Zellen bewirkt. Eine graphische Auswertung ist in Abb. 4 gezeigt. […]

PDGF-Rezeptor PTK = experiment: Inhibition of PDGF-induced receptor autophosphorylation in intact Swiss 3T3 cells (anti-phosphotyrosine immunoblot); settings: AG 1296 50 µM, 2 min preincubation, then PDGF-BB 100 ng/ml for 5 min
From the text: as §1

SMILES | Relative PDGF Rezeptor-gerichtete PTPase-Aktivität (% der Kontrolle) [1] | Phosphotyrosingehalt der PDGF-Rezeptoren (PDGF-Rezeptor) | PDGF-induzierte Autophosphorylierung des Rezeptors (PDGF-Rezeptor PTK)
CNc1ccc2oc(C[C@H]3O[C@@]4(CC[C@H]3C)O[C@H]([C@H](C)C(=O)c3ccc[nH]3)[C@H](C)C[C@H]4C)nc2c1C(=O)O [A 23187, 5-(Methylamino)-2-[[3,9,11-trimethyl-8-[1-methyl-2-oxo-(1H-pyrrol-2-yl)ethyl]-1,7-dioxaspiro[5,5]undec-2-yl]methyl]-4-benoxazolcarbonsäure] | 161 % der Kontrolle |  | 
COc1cc2ncc(-c3ccccc3)nc2cc1OC [AG 1296] |  | kontinuierlich ab | vollständig unterdrückt
